The record followed here is patent US12516038B2, “Inhibitors of antigen presentation by HLA-DR” (Janssen Pharmaceutica NV, priority 2020, dated 2026).

The subject of experiment [1] is human peripheral blood CD4+ helper T cells. Briefly: Pan-CD4+ T cell activation (off-target assay). Format: cell-based. To be noted: anti-CD3/anti-CD28 stimulation, IL-2 production by ELISA. The procedure, abridged: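 IL-2 secretion was measured by ELISA of culture supernatant after 24 h of TCR stimulation. Stimulation used anti-CD3 coated at 1 μg/mL and 1 μg/mL soluble anti-CD28 on human blood CD4+ helper T cells without HLA-DR-expressing APCs, with compound or vehicle present.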
A general note: ELISA stands for enzyme-linked immunosorbent assay.

The target in another experiment is HLA-DRB1*0401 (Homo sapiens (Human), UniProt P01903+P01911, A100K/A169T/DEL228-266/F76Y/I96L/K127E/L162R/M171V/N62H/P40V/Q125Y/R42H/S133A/S149N/S66Y/V115G/V209L/W38E). Briefly: HLA-DR4 HTRF assay. The class given is binding. As to conditions: inhibition of loading of Alexa Fluor 647-labeled Cit-CII peptide onto HLA-DR4 (CLIP cleaved). The procedure, abridged:
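HLA-DRB1*04:01 construct (α/β fused to human Fc, CLIP pre-cleaved by HRV3C overnight at 4° C) at 3 nM was preincubated 45 min with compound and 1 nM anti-Fc-Tb donor, then 40 nM Alexa647-Cit-CII1236-1249 peptide added. After 90 min at 37° C, the 665/620 nm HTRF ratio gave % inhibition; IC50 by nonlinear regression.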

Experiment [2] has as its system HLA-DR4 restricted mouse T cell hybridoma line (DR4.CII.36.8) with HLA-DRB1*04:01-expressing Boleth cells. Briefly: HLA-DR4-restricted peptide-specific T cell-based assay (hybridoma assay). To be noted: 6 h, inhibition of IL-2 production, CII259-273 peptide presented by Boleth cells. The procedure, abridged: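 IC50 values derive from 4-parameter logistic fits of IL-2 AlphaLISA signal over 8-point duplicate titrations. Compound and HLA-DRB1*04:01 Boleth APCs were preincubated 1 h, 37° C., before adding CII259-273-restricted DR4.CII.36.8 hybridoma cells with peptide for 6 h at 37° C., in DMEM/1% FCS.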

The term IC50 denotes the concentration that inhibits the measured activity by half. Low readings indicate greater potency, high ones weaker potency.

With `O=C1CCOc2cc(O[C@H](c3ccncc3)C3CCCCC3)ccc21` (single isomer, unassigned) [Example 38b, (*S)-7-(cyclohexyl(pyridin-4-yl)methoxy)chroman-4-one], the IC50 in experiment [1] (Homo sapiens, T-cell, 24 h) was above 15000 nM; against HLA-DRB1*0401, 4100 nM; in experiment [2] (Mus musculus, T-cell), 5500 nM.
On to `C[C@@H]1CC(=O)c2ccc(O[C@@H](c3ccncc3)c3ccc(C(N)=O)cc3)cc2O1` (single isomer, unassigned) [Example 39b, 4-((*R)—(((*R)-2-Methyl-4-oxochroman-7-yl)oxy)(pyridin-4-yl)methyl)benzamide], for which the IC50 came out at 9900 nM in experiment [1] (Homo sapiens, T-cell, 24 h); 850 nM against HLA-DRB1*0401; 600 nM in experiment [2] (Mus musculus, T-cell).
Regarding `C[C@H]1CC(=O)c2ccc(O[C@@H](c3ccncc3)c3ccc(C(N)=O)cc3)cc2O1` (single isomer, unassigned) [Example 39c, 4-((*R)—(((*S)-2-Methyl-4-oxochroman-7-yl)oxy)(pyridin-4-yl)methyl)benzamide], the IC50 amounted to 9900 nM in experiment [1] (Homo sapiens, T-cell, 24 h); 990 nM against HLA-DRB1*0401; 1100 nM in experiment [2] (Mus musculus, T-cell).
As to `CC[C@@H]1CC(=O)c2ccc(O[C@@H](c3ccncc3)c3ccc(C(N)=O)cc3)cc2O1` (single isomer, unassigned) [Example 40a, 4-((*R)—(((*R)-2-ethyl-4-oxochroman-7-yl)oxy)(pyridin-4-yl)methyl)benzamide], the IC50 is 15000 nM in experiment [1] (Homo sapiens, T-cell, 24 h); 1500 nM on HLA-DRB1*0401; 760 nM in experiment [2] (Mus musculus, T-cell).
Taken in the same sequence, the figures for `CC[C@H]1CC(=O)c2ccc(O[C@@H](c3ccncc3)c3ccc(C(N)=O)cc3)cc2O1` (single isomer, unassigned) [Example 40b, 4-((*R)—(((*S)-2-ethyl-4-oxochroman-7-yl)oxy)(pyridin-4-yl)methyl)benzamide] were 15000 nM, 1300 nM and 1000 nM.
Taken in the same sequence, the figures for `CC[C@H]1CC(=O)c2ccc(O[C@H](c3ccncc3)c3ccc(C(N)=O)cc3)cc2O1` (single isomer, unassigned) [Example 41b, 4-((*S)—(((*S)-2-ethyl-4-oxochroman-7-yl)oxy)(pyridin-4-yl)methyl)benzamide] were above 15000 nM, 1100 nM and 1500 nM.
The matching figures for `NC(=O)c1ccc([C@H](Oc2ccc3c(c2)O[C@@H](c2ccccc2)CC3=O)c2ccncc2)cc1` (single isomer, unassigned) [Example 42a, 4-((*S)—(((*R)-4-oxo-2-phenylchroman-7-yl)oxy)(pyridin-4-yl)methyl)benzamide]: above 15000 nM, 3800 nM and 11000 nM.
On to `NC(=O)c1ccc([C@H](Oc2ccc3c(c2)O[C@H](c2ccccc2)CC3=O)c2ccncc2)cc1` (single isomer, unassigned) [Example 42b, 4-((*S)—(((*S)-4-oxo-2-phenylchroman-7-yl)oxy)(pyridin-4-yl)methyl)benzamide], for which the IC50 in experiment [1] (Homo sapiens, T-cell, 24 h) was determined as 9900 nM; at HLA-DRB1*0401 it was 7500 nM; in experiment [2] (Mus musculus, T-cell), 12000 nM.
On to `NC(=O)c1ccc([C@@H](Oc2ccc3c(c2)O[C@@H](c2ccccc2)CC3=O)c2ccncc2)cc1` (single isomer, unassigned) [Example 43a, 4-((*R)—(((*R)-4-oxo-2-phenylchroman-7-yl)oxy)(pyridin-4-yl)methyl)benzamide], for which the IC50 in experiment [1] (Homo sapiens, T-cell, 24 h) amounted to 4500 nM; against HLA-DRB1*0401 it was 3600 nM; in experiment [2] (Mus musculus, T-cell) it was 740 nM.
Regarding `NC(=O)c1ccc([C@@H](Oc2ccc3c(c2)O[C@H](c2ccccc2)CC3=O)c2ccncc2)cc1` (single isomer, unassigned) [Example 43b, 4-((*R)—(((*S)-4-oxo-2-phenylchroman-7-yl)oxy)(pyridin-4-yl)methyl)benzamide], the IC50 in experiment [1] (Homo sapiens, T-cell, 24 h) amounted to 9900 nM; at HLA-DRB1*0401, 4900 nM; in experiment [2] (Mus musculus, T-cell), 630 nM.
Consider `C[C@@H]1COc2cc(O[C@H](c3ccncc3)c3ccc(C(N)=O)cc3)ccc2C1=O` (single isomer, unassigned) [Example 44a, 4-((*S)—(((*R)-3-Methyl-4-oxochroman-7-yl)oxy)(pyridin-4-yl)methyl)benzamide], for which the half-inhibitory concentration (IC50) is above 15000 nM in experiment [1] (Homo sapiens, T-cell, 24 h); 1600 nM at HLA-DRB1*0401; 1600 nM in experiment [2] (Mus musculus, T-cell).
`C[C@@H]1COc2cc(O[C@@H](c3ccncc3)c3ccc(C(N)=O)cc3)ccc2C1=O` (single isomer, unassigned) [Example 44b, 4-((*R)—(((*R)-3-Methyl-4-oxochroman-7-yl)oxy)(pyridin-4-yl)methyl)benzamide]: the IC50 in experiment [1] (Homo sapiens, T-cell, 24 h) is above 15000 nM; at HLA-DRB1*0401 it was 1100 nM; in experiment [2] (Mus musculus, T-cell), 2300 nM.
The matching figures for `CC[C@@H]1COc2cc(O[C@H](c3ccncc3)c3ccc(C(N)=O)cc3)ccc2C1=O` (single isomer, unassigned) [Example 45a, 4-((*S)—(((*R)-3-ethyl-4-oxochroman-7-yl)oxy)(pyridin-4-yl)methyl)benzamide]: above 15000 nM, 1100 nM and 3400 nM.
Taken in the same sequence, the figures for `CC[C@H]1COc2cc(O[C@H](c3ccncc3)c3ccc(C(N)=O)cc3)ccc2C1=O` (single isomer, unassigned) [Example 45b, 4-((*S)—(((*S)-3-ethyl-4-oxochroman-7-yl)oxy)(pyridin-4-yl)methyl)benzamide] were above 15000 nM, 1400 nM and 10000 nM.
Regarding `CC[C@@H]1COc2cc(O[C@@H](c3ccncc3)c3ccc(C(N)=O)cc3)ccc2C1=O` (single isomer, unassigned) [Example 46a, 4-((*R)—(((*R)-3-ethyl-4-oxochroman-7-yl)oxy)(pyridin-4-yl)methyl)benzamide], the IC50 is above 15000 nM in experiment [1] (Homo sapiens, T-cell, 24 h); 970 nM against HLA-DRB1*0401; 1500 nM in experiment [2] (Mus musculus, T-cell).
Consider `CC[C@H]1COc2cc(O[C@@H](c3ccncc3)c3ccc(C(N)=O)cc3)ccc2C1=O` (single isomer, unassigned) [Example 46b, 4-((*R)—(((*S)-3-ethyl-4-oxochroman-7-yl)oxy)(pyridin-4-yl)methyl)benzamide], for which the IC50 worked out at 5000 nM in experiment [1] (Homo sapiens, T-cell, 24 h); 1300 nM against HLA-DRB1*0401; 170 nM in experiment [2] (Mus musculus, T-cell).
Consider `Cc1c(O[C@@H](c2ccncc2)c2ccc(C(N)=O)cc2)ccc2c1OCCC2=O` (single isomer, unassigned) [Example 48a, (*R)-4-(((8-methyl-4-oxochroman-7-yl)oxy)(pyridin-4-yl)methyl)benzamide], for which the IC50 worked out at 9900 nM in experiment [1] (Homo sapiens, T-cell, 24 h); 680 nM against HLA-DRB1*0401; 140 nM in experiment [2].
Turning to `Cc1c(O[C@@H](c2ccncc2)c2ccc(C(N)=O)cc2)ccc2c1OCCC2=O` (single isomer, unassigned) [Example 48b, (*S)-4-(((8-methyl-4-oxochroman-7-yl)oxy)(pyridin-4-yl)methyl)benzamide], the IC50 in experiment [1] (24 hrs) was above 15000 nM; on HLA-DRB1*0401, 690 nM; in experiment [2], 1100 nM.
For `Cc1cc2c(cc1O[C@@H](c1ccncc1)c1ccc(C(N)=O)cc1)OCCC2=O` (single isomer, unassigned) [Example 49a, (*R)-4-(((6-Methyl-4-oxochroman-7-yl)oxy)(pyridin-4-yl)methyl)benzamide], the IC50 in experiment [1] (Homo sapiens, T-cell, 24 h) was found to be 9900 nM; against HLA-DRB1*0401, 570 nM; in experiment [2] (Mus musculus, T-cell), 200 nM.
As for `Cc1cc2c(cc1O[C@H](c1ccncc1)c1ccc(C(N)=O)cc1)OCCC2=O` (single isomer, unassigned) [Example 49b, (*S)-4-(((6-Methyl-4-oxochroman-7-yl)oxy)(pyridin-4-yl)methyl)benzamide], the IC50 is 15000 nM in experiment [1] (Homo sapiens, T-cell, 24 h); 1000 nM on HLA-DRB1*0401; 3000 nM in experiment [2] (Mus musculus, T-cell).
On to `NC(=O)c1ccc([C@@H](Oc2ccc3c(c2F)OCCC3=O)c2ccncc2)cc1` (single isomer, unassigned) [Example 50a, (*R)-4-(((8-Fluoro-4-oxochroman-7-yl)oxy)(pyridin-4-yl)methyl)benzamide], for which the IC50 was 9900 nM in experiment [1] (Homo sapiens, T-cell, 24 h); 1900 nM against HLA-DRB1*0401; 240 nM in experiment [2] (Mus musculus, T-cell).
The matching figures for `NC(=O)c1ccc([C@H](Oc2ccc3c(c2F)OCCC3=O)c2ccncc2)cc1` (single isomer, unassigned) [Example 50b, (*S)-4-(((8-Fluoro-4-oxochroman-7-yl)oxy)(pyridin-4-yl)methyl)benzamide]: above 15000 nM, 1900 nM and 2500 nM.
For `NC(=O)c1ccc([C@@H](Oc2cc(F)c3c(c2)OCCC3=O)c2ccncc2)cc1` (single isomer, unassigned) [Example 51a, (*R)-4-(((5-Fluoro-4-oxochroman-7-yl)oxy)(pyridin-4-yl)methyl)benzamide], the IC50 turned out to be 15000 nM in experiment [1] (Homo sapiens, T-cell, 24 h); 3600 nM against HLA-DRB1*0401; 250 nM in experiment [2] (Mus musculus, T-cell).
